Measurements reported in patent publication US12551479B2, “Acyl-protein thioesterase inhibitor for the treatment and/or prevention of Huntington's disease” (UNIVERSITÉ GRENOBLE ALPES, priority 2019, dated 2026).

Tests used:
StHdh^Q111/Q111 cells = assay: RUSH system: GPI-SBP-mCherry trafficking from endoplasmic reticulum to Golgi and plasma membrane; format: cell-based, mouse
Procedure: The RUSH plasmid (Boncompain et al., 2012) is a bicistronic plasmid (SEQ ID NO: 2) allowing the expression of two parts of the system: the reticulum-specific anchor (KDEL-streptavidin), and the reporter part (GPI-SBP-mCh). The addition of biotin in the extracellular medium (40 μM) induces the unhooking of the reporter part of the anchor, thus allowing to follow the intracellular trafficking in a synchronized way within a cell population from the endoplasmic reticulum.
For striatal StHdh cells, acute treatment was performed at 10 μM for 1 hour before and during the acquisition time. For neurons within the microchambers, treatments were started at DIV2 until DIV12 every day at 1 μM in each compartment of the microfluidic device.
The inventors used the Retention Using Selective Hooks (RUSH) system to study intracellular dynamics from the ER to the plasma membrane in Huntington's disease condition (FIG. 1A). RUSH allows tracking the synchronous release of a reporter molecule from specific intracellular compartments. In the present experiment, the inventors followed the release of glycosylphosphatidylinositol (GPI)-anchored fluorescence protein mCherry, and fused to streptavidin-binding peptide (SBP) that was retained into the ER compartment by the interaction with a “hook” protein composed of the KDEL motif fused to streptavidin. In the absence of biotin, the GPI-SBP-mCherry localizes at the ER (FIG. 1A). Addition of biotin to the cells expressing GPI-SBP-mCherry and KDEL-streptavidin causes a synchronous release of the GPI-SBP-mCherry reporter from the hook which then migrates to the Golgi apparatus and later to the plasma membrane.
To study these dynamics in the context of Huntington's disease, the inventors transfected the GPI-SBP-mCherry-KDEL-streptavidin construct as shown in SEQ ID NO:2 into immortalized striatal cells from Hdh^Q111/Q111 and Hdh^Q7/Q7 mice, referred to as StHdh^Q111/Q111 and StHdh^Q7/Q7 cells respectively. They then monitored GPI-SBP-mCherry trafficking by real-time imaging for 90 minutes. To assess intracellular trafficking dynamics, they quantified the kinetics of appearance and disappearance of mCherry fluorescence in the Golgi apparatus over time (FIGS. 1B and C). Shortly after biotin addition, GPI leaves the ER and moves to the Golgi apparatus. The inventors quantified fluorescence at the Golgi and observed that in StHdh^Q7/Q7 cells, the peak fluorescence was at 16.6 minutes, whereas it was delayed to 23.6 minutes in StHdh^Q111/Q111 cells (FIG. 1B). Their observations indicate a reduced trafficking of GPI from the ER to the Golgi apparatus as well as prolonged retention of GPI in the Golgi as evidenced by a longer period of GPI fluorescence in the Golgi apparatus.

melanoma cells = settings: studies of Vujic et al., 2015; cited from earlier work
APT1 = APT1 (Homo sapiens, UniProt O75608); settings: read-out: IC50APT1; cited from earlier work
APT2 = APT2 (Homo sapiens, UniProt O95372); settings: read-out: IC50APT2; cited from earlier work
[1] = StHdh^Q111/Q111 cells, inhibitor 10 μM 1 hour or siRNA gene silencing

Chain of APT2 (O95372 whole entry): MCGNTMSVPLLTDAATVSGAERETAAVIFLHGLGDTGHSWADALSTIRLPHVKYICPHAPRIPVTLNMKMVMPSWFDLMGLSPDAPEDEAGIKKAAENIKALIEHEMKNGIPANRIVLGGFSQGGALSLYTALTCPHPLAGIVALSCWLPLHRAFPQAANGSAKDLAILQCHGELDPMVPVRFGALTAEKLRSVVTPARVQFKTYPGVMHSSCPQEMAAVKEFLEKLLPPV
Chain of APT1 (O75608 whole entry): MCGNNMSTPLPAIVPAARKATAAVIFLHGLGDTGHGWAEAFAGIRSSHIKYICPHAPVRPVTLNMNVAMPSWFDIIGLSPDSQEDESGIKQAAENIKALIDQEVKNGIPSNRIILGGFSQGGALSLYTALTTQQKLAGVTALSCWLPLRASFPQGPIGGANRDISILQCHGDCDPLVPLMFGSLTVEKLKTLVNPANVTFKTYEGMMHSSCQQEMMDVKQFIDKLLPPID

Row | Compound | effect on kinetics from the endoplasmic reticulum to the Golgi apparatus (StHdh^Q111/Q111 cells; [1]) | effect on retention in the Golgi (StHdh^Q111/Q111 cells; [1]) | effect on melanoma cells (melanoma cells) | IC50 (APT1) [µM] | IC50 (APT2) [µM] | time after biotin addition for the appearance of the fluorescence peak in the Golgi (StHdh^Q111/Q111 cells; StHdh^Q111/Q111 cells treated 1 hour with 10 μM, without treatment 23.2-23.3 min, StHdh^Q7/Q7 16.6 min) [min] | time for fluorescence to leave the Golgi apparatus (retention time in the Golgi) (StHdh^Q111/Q111 cells; StHdh^Q111/Q111 cells treated 1 hour with 10 μM, without treatment 24-25.4 min, wild-type cells 15.1 min) [min]
1 | COc1ccc(N2CCN(C(=O)c3cc4c(s3)-c3ccccc3S(=O)(=O)C4)CC2)cc1 [ML-349] | no effect | no effect | no biologically significant effect |  |  |  | 
2 | CCCCCCCCCC[C@@H]1C(=O)O[C@H]1CCc1ccc(OC)c(OC)c1 [Palmostatin B] |  |  |  | 0.0054 | 0.0377 | 18 | 21.3
